Data published in EP4589010A1, “SCREENING METHOD FOR OFFENSIVE ODOR SUPPRESSING MATERIAL” (priority 2022, dated 2024).

Tests used:
[1] = tested on: broadly tuned olfactory receptor OR2W1; conditions: cited from earlier work
[2] = tested on: cells that do not express olfactory receptors; experiment: Luciferase assay, mock test; format: cell-based
Protocol: 0.05 µg of human olfactory receptor gene expression vector, 0.01 µg of RTP1S vector, and 0.01 µg of firefly luciferase vector pGloSensor™-22F cAMP Plasmid (Promega) containing CMV promoter were dissolved in 10 µL of Opti-MEM I (Gibco) to prepare a gene solution (per well). HEK293T cells were seeded at 100 µL per well in a 96-well plate (Biocoat, Corning) at a number of cells that reached subconfluence after 24 hours, and the gene solution was added to each well by lipofection according to the usage of Lipofectamine 3000 so that the cells were transfected with the gene and cultured at 37°C in a 5% carbon dioxide atmosphere for 24 hours. […] Then, 10 µL of 10 mM hexanal solution prepared in HEPES buffer supplemented with 300 µM CuCl2 and FBS was added to each well, and the changes in the response value of the luciferase activity over time were measured every minute immediately after the addition, thus obtaining the responses of approximately 400 human olfactory receptors to hexanal. The magnitude of the olfactory receptor response was expressed as a fold increase value obtained by dividing the maximum response value of luciferase activity that occurred after stimulation with hexanal by the luciferase activity before the stimulation with hexanal. […]

[3] = tested on: olfactory receptor OR2C1; experiment: Luciferase (GloSensor cAMP) assay, response of olfactory receptor to hexanal; format: cell-based, human; conditions: HEK293T cells expressing OR2C1; various hexanal concentrations; Figure 1
Protocol: (§1) 0.05 µg of human olfactory receptor gene expression vector, 0.01 µg of RTP1S vector, and 0.01 µg of firefly luciferase vector pGloSensor™-22F cAMP Plasmid (Promega) containing CMV promoter were dissolved in 10 µL of Opti-MEM I (Gibco) to prepare a gene solution (per well). HEK293T cells were seeded at 100 µL per well in a 96-well plate (Biocoat, Corning) at a number of cells that reached subconfluence after 24 hours, and the gene solution was added to each well by lipofection according to the usage of Lipofectamine 3000 so that the cells were transfected with the gene and cultured at 37°C in a 5% carbon dioxide atmosphere for 24 hours. After removal of the culture solution, the cells were washed once with HEPES buffer, and 100 µL of GloSensor™ cAMP Reagent (Promega), adjusted to a predetermined concentration with HEPES buffer supplemented with FBS, was added to each well, and allowed to stand for 2 hours at room temperature. Then, 10 µL of 10 mM hexanal solution prepared in HEPES buffer supplemented with 300 µM CuCl2 and FBS was added to each well, and the changes in the response value of the luciferase activity over time were measured every minute immediately after the addition, thus obtaining the responses of approximately 400 human olfactory receptors to hexanal. The magnitude of the olfactory receptor response was expressed as a fold increase value obtained by dividing the maximum response value of luciferase activity that occurred after stimulation with hexanal by the luciferase activity before the stimulation with hexanal. Accordingly, OR2C1, OR2J2, OR2J3, OR5K1, OR5P3 and OR51E1 were identified as candidate olfactory receptors responsive to hexanal. After that, an aroma compound as a sample was prepared in HEPES buffer supplemented with 300 µM CuCl2 and FBS to a concentration 10 times the final concentration. 10 µL this aroma compound stimulation solution was added to each well, and the changes in the luciferase activity over time were measured every minute immediately after the addition to obtain the responses of approximately 400 human olfactory receptors to the aroma compound. The magnitude of the response of the olfactory receptor was expressed as a fold increase value determined by dividing the maximum luciferase activity value that occurred by the stimulation with the aroma compound by the luciferase activity before the stimulation with the aroma compound.
(§2) The responses of hexanal, which is an offensive odor-causing substance, to the olfactory receptors OR2C1, OR2J2, OR2J3, OR5K1, OR5P3 and OR51E1 were measured at various concentrations by the luciferase activity assay described above.

[4] = tested on: olfactory receptor OR2J2; experiment: as above; format: cell-based, human; conditions: HEK293T cells expressing OR2J2; various hexanal concentrations; Figure 2
Protocol: as §1, §2

[5] = tested on: olfactory receptor OR51E1; experiment: as above; format: cell-based, human; conditions: HEK293T cells expressing OR51E1; various hexanal concentrations; Figure 6
Protocol: as §1, §2

[6] = tested on: olfactory receptor OR2J3; experiment: as above; format: cell-based, human; conditions: HEK293T cells expressing OR2J3; various hexanal concentrations; Figure 3
Protocol: as §1, §2

[7] = tested on: olfactory receptor OR5K1; experiment: as above; format: cell-based, human; conditions: HEK293T cells expressing OR5K1; various hexanal concentrations; Figure 4
Protocol: as §1, §2

[8] = tested on: olfactory receptor OR5P3; experiment: as above; format: cell-based, human; conditions: HEK293T cells expressing OR5P3; various hexanal concentrations; Figure 5
Protocol: as §1, §2

CC1=CCC2CC1C2(C)C (stereo not drawn) [alpha-pinene]
suppression of the OR2W1 response ([1]; masking agent against hexanal, Non-patent literature 6): suppress the OR2W1 response

CCCCCC=O [hexanal]
response to hexanal in the mock test [2]: no response was observed
hexanal response of OR2W1 ([1]; in vitro tests, prior art): concentration-dependent hexanal response
response of olfactory receptor OR2C1 to hexanal (fold increase value) [3]: concentration-dependent responses
response of olfactory receptor OR2J2 to hexanal (fold increase value) [4]: concentration-dependent responses
response of olfactory receptor OR51E1 to hexanal (fold increase value) [5]: concentration-dependent responses
response of olfactory receptor OR2J3 to hexanal (fold increase value) [6]: concentration-dependent responses
response of olfactory receptor OR5K1 to hexanal (fold increase value) [7]: concentration-dependent responses
response of olfactory receptor OR5P3 to hexanal (fold increase value) [8]: concentration-dependent responses
